The values below come from US20260297508A1, “MODULATORS OF PROTEIN SECRETION” (SANOFI, priority 2023, published 2026).

Data set [1] deals with biotin-induced antibody release, U2OS clone #7 cells. Kind of data set: High-throughput RUSH screen: biotin-induced cytoplasmic GFP signal decay (antibody release), U2OS clone #7. In kind it is cell-based, human. Conditions: for secretion activator at both low and high concentration (consistently decreased fluorescent signal, among 20 best activators): Prestwick library; for decrease of intracytoplasmic GFP fluorescence signal (biotin-stimulated RUSH system): screening campaigns, summary. On the procedure: FIGS. 4A-4C show the high-throughput screening of chemical compound libraries for the identification of modulators of protein secretion. […] U2OS clone #7 is plated in 384-well plates and incubated for 24 h before treatment with each compound of the Prestwick, ICCB Known Bioactives, or Autophagy Compound Library at 2 concentrations, low and high (with a 10-fold difference). […] The results of the Prestwick library screening at the low drug concentration are plotted. Brefeldin A was used as a positive control of the inhibition of secretion. The compounds causing a cytoplasmic GFP intensity below that observed for biotin-only treated cells are potential enhancers of protein secretion.
U2OS cells were transfected with the streptavidin-KDEL plasmid using Lipofectamine 2000 (Thermo Fisher Scientific) and selected in medium supplemented with G418 (400 μg/mL, Gibco-Invitrogen) for 2 weeks. Limiting dilution in 96-well plates was used for single cell isolation from the selected pool. Clones were amplified and selected based on streptavidin immunofluorescence. Clone #BD6 showing the highest streptavidin expression was further expanded in medium supplemented with G418 (200 μg/mL) and transfected with the anti-PD-L1 IgG RUSH plasmid using Lipofectamine 2000 and selected in medium supplemented with G418 (200 μg/mL) and hygromycin (100 μg/mL, Santa Cruz Biotechnology) for 2 weeks. Limiting dilution in 96-well plates was used for single cell isolation from clone #BD6-derived selected pool. Clones were amplified and selected based on GFP fluorescence and clone #7 was selected for further characterization and screening campaigns.
U2OS clone #7 cells were seeded in black 384-well imaging plates (Greiner bio one), 2,000 cells/well, and incubated for 24 h at 37° C. in a humidified incubator with 5% CO2. Cells were treated on the next day with the compounds from either the Prestwick library at […], the ICCB Known Bioactives library at 1/100^e or 1/1000^e, or the autophagy compound library at 10 μM or 1 μM for 4 h. […] Cells were then fixed as described above and processed for subsequent automated image acquisition using a robot-assisted IXM XL BioImager (Molecular Devices, Sunnyvale, CA, USA) equipped with a Sola light source (Lumencor, Beaverton, OR, USA), adapted excitation and emission filters (Semrock) a 16-bit monochrome sCMOS PCO.edge 5.5 camera (PCO, Kelheim, Germany). A 20× PlanAPO objective (Nikon, Tokyo, Japan) was used to acquire a minimum of 4 view fields in each well. The acquired images were processed using the open-access R software (https://www.r-project.org) with the help of freely available packages EBImage (available on the Bioconductor repository https://www.bioconductor.org), and RBioFormats (https://github.com/aoles/RBioFormats), and the custom packages MetaxpR (https://github.com/asauvat/MetaxpR) and MorphR (https://github.com/kroemerlab/MorphR). Nuclei were first detected using Hoechst 33342 signal and used as a marker to detect cytoplasmic areas based on GFP signal, allowing for the evaluation of cytoplasmic GFP intensity. Data were thereafter extracted and statistically evaluated using R (https://www.r-project.org). Data were normalized using negative and positive controls, reduced and transformed into a Z-score. The experiments were repeated manually at low scale with selected drugs to confirm their effects on secretion, in this second set of assays, U2OS clone #7 cells incubated with secretion inhibitors were fixed and stained with Hoechst as described above for imaging and viability determination based on cell counts.
We next sought to use clone #7 in screening campaigns for the identification of drugs capable of enhancing or inhibiting antibody secretion. […] Cell counting was facilitated by nuclear counterstaining with Hoechst 33324 in order to assess viability and distinguish drug effects on the secretion kinetics from direct cytotoxicity and select relevant drugs for further characterization. […]

Data set [2] shares this test system. Kind of data set: Low-throughput validation by imaging of the biotin-induced antibody release (cytoplasmic GFP), clone #7. Conditions: FIG. 5C. In kind it is cell-based, human. The method, then: FIGS. 5A-5C show selection of potential enhancers of protein secretion. FIGS. 5A and 5B) show dot plot representations of drugs efficiency based on their Z-scores measured at low and high drug concentration (FIG. 5A, Prestwick library; FIG. 5B, ICCB Known Bioactives and TargetMol Autophagy libraries). Compounds selected for further characterization are listed. (FIG. 5C) Clone #7 was treated with the indicated compounds, fixed and analyzed as described in FIG. 4A legend.
FIG. 6A-6C show validation of enhancers of protein secretion.
U2OS clone #7 cells were seeded in black 384-well imaging plates (Greiner bio one), 2,000 cells/well, and incubated for 24 h at 37° C. in a humidified incubator with 5% CO2. Cells were treated on the next day with the compounds from either the Prestwick library at […], the ICCB Known Bioactives library at 1/100^e or 1/1000^e, or the autophagy compound library at 10 μM or 1 μM for 4 h. […] Cells were then fixed as described above and processed for subsequent automated image acquisition using a robot-assisted IXM XL BioImager (Molecular Devices, Sunnyvale, CA, USA) equipped with a Sola light source (Lumencor, Beaverton, OR, USA), adapted excitation and emission filters (Semrock) a 16-bit monochrome sCMOS PCO.edge 5.5 camera (PCO, Kelheim, Germany). A 20× PlanAPO objective (Nikon, Tokyo, Japan) was used to acquire a minimum of 4 view fields in each well. […] Nuclei were first detected using Hoechst 33342 signal and used as a marker to detect cytoplasmic areas based on GFP signal, allowing for the evaluation of cytoplasmic GFP intensity. Data were thereafter extracted and statistically evaluated using R (https://www.r-project.org). […]
Medium- and high-throughput screenings often yield false positive and negative hits, calling for independent validation in low-throughput experiments with orthogonal technologies. In a first round of experiments, we evaluated the effects of shortlisted compounds with potential antibody secretion enhancer activity. […]

Data set [3] concerns RUSH antibody secretion, U2OS clone #7 cells. Kind of data set: ELISA on immobilized PD-L1: RUSH antibody titer in supernatant of treated clone #7 cells. In kind it is cell-based, human. Conditions: PD-L1 binding ELISA. The method, then:
FIGS. 7A and 7B show validation of inhibitors of protein secretion. […] Clone #7 cells were treated with the indicated compounds and supernatants were assayed for PD-L1 binding. Brefeldin A was used as a protein secretion inhibitor positive control. […] Hoechst 33324 fluorescence was measured, which enabled to number adherent living cells in each well.
U2OS clone #7 cells were seeded in 6-well plates and kept for 24 h at 37° C. in a humidified incubator with 5% CO2. The next day, the supernatants were removed, cells were rinsed with 37° C. pre-heated PBS and new medium containing the chemical treatment was added for 4 h. […] Then supernatants were collected and used for the ELISA assay as follows. MaxiSorp 96-well plates (Thermo Fisher Scientific) were coated with 0.5 μg/mL hFc-human-PD-L1 (R&D Systems, Minneapolis, MN) in PBS for 5.5 h at RT. Coating solution was then removed and 2% BSA/PBS blocking solution was added overnight at 4° C. The next day, wells were washed 3 times with 0.5% BSA/0.05% Tween-20/PBS solution. Supernatants were added after a ⅓ dilution in 0.5% BSA/0.05% Tween-20/PBS, for 2.3 h at RT. Wells were washed 3 times with 0.5% BSA/0.05% Tween-20/PBS solution. Anti-human kappa light chain HRP-coupled antibody was added diluted in 0.5% BSA/0.05% Tween-20/PBS at 1/4000^e for 2.3 h at RT. Wells were washed 3 times with 0.5% BSA/0.05% Tween-20/PBS solution before incubation with substrate reagents pack (R&D Systems) for 15 min in the dark. Fifty μL of STOP solution (R&D Systems) were then added to each well and the absorbance in each well was subsequently measured at 450 nm, and 635 nm for background subtraction, using a VICTOR™ X4 (PerkinElmer, Waltham, MA).
Medium- and high-throughput screenings often yield false positive and negative hits, calling for independent validation in low-throughput experiments with orthogonal technologies. In a first round of experiments, we evaluated the effects of shortlisted compounds with potential antibody secretion enhancer activity. Compounds identified in the screening campaigns were tested again on clone #7 at a low concentration (FIG. 6A) or a ten-fold higher concentration (FIG. 6B) for their ability to increase antibody secretion. […] We further characterized these hits in an PD-L1 binding ELISA.
(In an ELISA, binding on a coated surface is turned into a signal by an enzyme label.)

In data set [4] the test system is SCAP. Conditions: cited from earlier work.
Where [5] appears, read: 4 h compound, then 40 μM biotin 1 h.
Where [6] appears, read: ICCB Known Bioactives and TargetMol Autophagy libraries, 4 h compound, then 40 μM biotin 1 h.

With `O=C(O)CCNC(=O)c1ccc(/N=N/c2ccc(O)c(C(=O)O)c2)cc1` [balsalazide sodium], the “secretion activator at both low and high concentration (consistently decreased fluorescent signal, among 20 best activators)” value in data set [1] (setting [5]) was “fulfilled these criteria”.

For the compound `C[C@H]1CCC/C=C/[C@@H]2C[C@H](O)C[C@H]2[C@H](O)/C=C/C(=O)O1` [brefeldin A], the “inhibition of the biotin-induced decrease of the GFP signal” value in data set [1] (4 h compound, then 40 μM biotin 1 h, screening) is reported as “inhibited the biotin-induced decrease of the GFP signal”.

As for `C[C@@H]1C[C@@H]([C@H](O)CC2CC(=O)NC(=O)C2)C(=O)[C@@H](C)C1` [cycloheximide, 4-[(2R)-2-[(1S,3S,5S)-3,5-dimethyl-2-oxocyclohexyl]-2-hydroxyethyl]piperidine-2,6-dione], in data set [1] (setting [5]), the “secretion activator at both low and high concentration (consistently decreased fluorescent signal, among 20 best activators)” value is recorded as “fulfilled these criteria”. Besides, the “decrease of intracytoplasmic GFP fluorescence signal (biotin-stimulated RUSH system)” value (“decrease … (biotin-stimulated RUSH system)” for short) in data set [1] is on record as “consistently decreased intracytoplasmic GFP fluorescence”.

With `C[C@]12CC[C@H](O)C[C@H]1CC[C@@H]1[C@@H]2C[C@@H](O)[C@]2(C)[C@@H](C3=CC(=O)OC3)CC[C@]12O` [digoxigenin, 3-[(3S,5R,8R,9S,10S,12R,13S,14S,17R)-3,12,14-trihydroxy-10,13-dimethyl-1,2,3,4,5,6,7,8,9,11,12,15,16,17-tetradecahydrocyclopenta[a]phenanthren-17-yl]-2H-furan-5-one], the “secretion activator at both low and high concentration (consistently decreased fluorescent signal, among 20 best activators)” value in data set [1] (setting [5]) is “fulfilled these criteria”. Moreover, the “decrease … (biotin-stimulated RUSH system)” value in data set [1] is reported as “consistently decreased intracytoplasmic GFP fluorescence”.

For the compound `CC[C@H]1CN2CCc3cc(OC)c(OC)cc3[C@@H]2C[C@@H]1C[C@H]1NCCc2cc(OC)c(OC)cc21` [emetine], the “activity as secretion activator at both low and high concentrations” value in data set [1] (setting [6]) is “active at both low and high concentrations”.

With `O[C@H]1[C@H]2c3cc4c(cc3CN3CCC(=C[C@@H]1O)[C@H]23)OCO4` [lycorine, 3,12-Didehydro-2′H-[1,3]dioxolo[4′,5′:9,10]galanthan-1α,2β-diol], the “efficiency as secretion activator, high concentration” value in data set [1] (ICCB Known Bioactives and TargetMol Autophagy libraries, high concentration) is “not among the 20 most active compounds at the high concentration”. Moreover, in data set [1] (ICCB Known Bioactives and TargetMol Autophagy libraries, low concentration), the “efficiency as secretion activator, low concentration” value was “more efficient than any other compound at low concentration”. Moreover, the “decrease … (biotin-stimulated RUSH system)” value in data set [1] is on record as “consistently decreased intracytoplasmic GFP fluorescence”. Moreover, in data set [2], the “effect on secretion by cell imaging” value is “secretion activator effect”. For the same compound, in data set [3] (summary), the “RUSH antibody titers in treated cell culture supernatant” value is listed as “shown to increase RUSH antibody titers”. Also, the “effect on antibody secretion compared with sodium butyrate” value in data set [3] (1 and 50 μM) is reported as “milder than that of sodium butyrate”. Further, the antibody secretion-stimulatory activity entry in data set [3] (lycorine tested at both 1 and 50 μM, 4 h compound, biotin 1 h) is given as “considered to be active”. Also, in data set [4] (orally active), the SCAP inhibition entry is “potent and orally active SCAP inhibitor”. Further, the SCAP protein level result in data set [4] (without changing its transcription) is reported as “downregulates”.

For `C1N2CN3CN1CN(C2)C3` [methenamine, 1,3,5,7-tetrazatricyclo[3.3.1.13,7]decane], the “secretion activator at both low and high concentration (consistently decreased fluorescent signal, among 20 best activators)” value in data set [1] (setting [5]) is given as “fulfilled these criteria”. For the same compound, the “decrease … (biotin-stimulated RUSH system)” value in data set [1] was “consistently decreased intracytoplasmic GFP fluorescence”.

Turning to `O=C1CC(c2ccccc2)Oc2cc(O)cc(O)c21` (stereo not drawn) [pinocembrin, 5,7-Dihydroxy-2-phenyl-2,3-dihydro-4H-chromen-4-one], the “activity as secretion activator at both low and high concentrations” value in data set [1] (setting [6]) is “active at both low and high concentrations”. Besides, the “decrease … (biotin-stimulated RUSH system)” value in data set [1] is reported as “consistently decreased intracytoplasmic GFP fluorescence”.

Consider `CCC1(CC)C(=O)C=CNC1=O` [pyrithyldione, 3,3-diethyl-1H-pyridine-2,4-dione], for which the “secretion activator at both low and high concentration (consistently decreased fluorescent signal, among 20 best activators)” value in data set [1] (setting [5]) is “fulfilled these criteria”. Further, the “decrease … (biotin-stimulated RUSH system)” value in data set [1] was “consistently decreased intracytoplasmic GFP fluorescence”.

For verteporfin, in data set [1] (setting [5]), the “secretion activator at both low and high concentration (consistently decreased fluorescent signal, among 20 best activators)” value is “fulfilled these criteria”. In addition, the “phototoxicity leading to GFP bleaching” value in data set [1] (data not shown) is reported as “phototoxicity that leads to GFP bleaching”.
